# Assays:
# HCT116 cells [1] = system: HCT116 cells
# Method: (§1) HCT116 cells were seeded in 96 well plates (Greiner Bio-One, Monroe, N.C.) and allowed to settle overnight. Test compound dissolved in dimethyl sulfoxide (DMSO) was added and drug incubation proceeded for 72 hours. […] After 72 hour, 50 L of CellTiter-Glo Luminescent Cell Viability Assay reagent (Promega Corporation, Madison, Wis.) was added to cells in 200 L of cellular media. After a proscribed incubation period, luminescence was measured using a TopCount NXT plate reader (PerkinElmer, Waltham, Mass.).
# PARP in HCT116 cells = assay: PARP activation by 5-FU; assay type: cell-based
# Excerpt: Kim, M. Y. et al. Genes & Development 19:1951-67 (2005)). […] TS inactivation is know to cause an imbalance in nucleotide pools that subsequently promotes aberrant uracil incorporation into DNA (Berger S. H. et al. Biochemical Pharmacology 76:697-706 (2008)).
# [2] = system: murine gastric and bladder tumors; conditions: immune-competent mice; cited from earlier work
# Human NAMPT = molecular target: T1, Human NAMPT (Homo sapiens, UniProt P43490); assay: Nampt Activity Assay (coupled enzyme, resazurin/diaphorase fluorometric detection of NADH); assay type: biochemical; conditions: read-out: vitro IC50 (Nampt activity assay)
# T1 construct: 6xHis (N); made in house; host or cells: E. coli BL21-AI
# Excerpt: 5-phosphoribosyl-1-pyrophosphate (PRPP), ATP, NaM, NaMN, Triton X-100, UDP-glucose and diaphorase were purchased from Sigma-Aldrich, St. Louis, Mo. Human NAMPT, NMN adenylyltransferase (NMNAT1) and UDP-glucose dehydrogenase (UGDH) encoding DNAs were each inserted into a house-modified E. Coli expression vector such that the expressed proteins carried an N-terminal 6×His tag. The His-tagged proteins were expressed in the BL21-AI E. Coli expression strain (Invitrogen Corporation, Carlsbad, Calif.) following induction by 0.2% L-arabinose and 0.5 mM IPTG at 30° C. Proteins were purified on Ni-NTA resin (Qiagen, Germantown, Md.).
# The assay for Nampt catalytic activity was constructed based on a previously published coupled enzyme fluorometric technique, which employs NADH as ultimate analyte (Revollo, J. R. et al. Biol. Chem. 279, 50754-50763 (2004)). A substantial improvement in assay sensitivity was achieved by switching from direct detection to a resazurin/diaphorase-based fluorometric detection system for NADH (Guilbault, G. G., and Kramer, D. N. Anal. Chem. 37, 1219-1221 (1965)). The standard inhibition analyses were performed in a real-time mode in 96-well microtiter plates using 50 mM Tris-HCl, pH 7.5, 1% DMSO (v/v), 0.01% Triton X-100 (v/v), 10 mM MgCl2, 2 mM ATP, […], […], […], as well as the following detection reagents: 5 nM Nmnat, 200 nM Ugdh, 200 µM UDP-glucose, 0.02 U/mL diaphorase and […]. Incubation of samples at room temperature for up to 3 hours was followed by quantification of fluorescence intensities at excitation and emission wavelengths of 510 nm and 590 nm, respectively, using Gemini XS plate reader (Molecular Devices, Sunnyvale, Calif.). The counter-assay intended to disqualify false positives, such as inhibitors of detection enzymes or fluorescence quenchers, was carried out essentially as described above with an exception that 1 μM NaMN was substituted for Nampt.
# [3] = Cytotoxicity Assay (CellTiter-Glo, 72 hour drug incubation); conditions: human, HCT116 cells
# Method: as §1
# PARP = conditions: in vitro and in vivo models of cerebral ischemia; cited from earlier work
# HCT116 cells [4] = assay: Synergy between Nampt inhibitor and chemotherapeutic compounds (MacSynergy II, CellTiter-Glo); assay type: cell-based; conditions: combined with a known Nampt inhibitor
# Method: Experiments were conducted in HCT116 cells. […] Prior to combinations of compounds, dose curves of cells treated with a single compound were generated to define relevant compound doses to use in the combination analysis. Typically, relevant doses were those found in the inflection portion of a sigmoidal dose-response curve. Utilizing these optimized conditions, cells were dosed with Nampt inhibitor plus the test compound at a variety of concentrations of each, and viability was assessed using CellTiter-Glo. Data was processed using the MacSynergy™ II algorithm, which subtracted from actual data a prediction of compound additivity.
# T1 sequence (P43490 whole entry): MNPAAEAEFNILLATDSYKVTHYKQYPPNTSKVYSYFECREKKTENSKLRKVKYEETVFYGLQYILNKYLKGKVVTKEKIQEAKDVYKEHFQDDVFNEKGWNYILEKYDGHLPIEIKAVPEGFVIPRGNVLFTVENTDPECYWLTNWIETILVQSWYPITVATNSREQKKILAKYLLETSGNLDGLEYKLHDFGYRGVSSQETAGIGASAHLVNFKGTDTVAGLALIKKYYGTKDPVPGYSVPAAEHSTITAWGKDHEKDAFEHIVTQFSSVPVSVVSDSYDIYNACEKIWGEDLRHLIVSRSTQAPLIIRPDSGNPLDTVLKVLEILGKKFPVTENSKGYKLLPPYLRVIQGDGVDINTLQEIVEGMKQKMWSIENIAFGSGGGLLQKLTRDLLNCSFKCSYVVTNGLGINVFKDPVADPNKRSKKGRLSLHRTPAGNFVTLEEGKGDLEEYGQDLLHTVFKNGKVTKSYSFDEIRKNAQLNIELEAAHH
IC50 (Human NAMPT) [nM],Compound,IC50 at 72 h [3] [nM],further results
,4-Fluoro-2-{2-[3- (morpholin-4- yl)azetidin-1- yl]pyridin-4-yl}- N-(4-{[(pyridin- 3-ylmethyl) carbamoyl] amino}phenyl) benzenesulfon- amide [Example 762],,IC50 (HCT116 cells [1]): ~2.2 nM
,"O=c1[nH]cc(F)c(=O)[nH]1 [5-fluorouracil (5-FU), 5-fluorouracil]",,PARP activation (PARP in HCT116 cells): PARP activator
,O=C(/C=C/c1cccnc1)NCCCCC1CCN(C(=O)c2ccccc2)CC1 [AP0866],,"effect on tumor growth, co-administration with L-1MT [2]: additive inhibitory effect"
~2,"O=C(NCCCNS(=O)(=O)c1ccccc1-c1ccccc1)NCc1cccnc1 [Example 152, N-(3-{[(pyridin-3-ylmethyl)carbamoyl]amino}propyl)biphenyl-2-sulfonamide]",~55,
~1.8,"O=C(NCc1cccnc1)Nc1ccc(COc2cc(C(F)(F)F)ccc2Cl)cc1 [Example 164, 1-(4-{[2-Chloro-5-(trifluoromethyl)phenoxy]methyl}phenyl)-3-(pyridin-3-ylmethyl)urea]",~74,
~6.3,"O=C(NCc1cccnc1)Nc1ccc(C[S+]([O-])c2ccccc2-c2ccccc2)cc1 (centres unmarked) [Example 210, 1-{4-[(biphenyl-2-ylsulfinyl)methyl]phenyl}-3-(pyridin-3-ylmethyl)urea]",~39,
~3.4,"C[C@H](Oc1ccccc1-c1ccccc1)c1nc(CNC(=O)NCc2cccnc2)cs1 [Example 363, 1-({2-[(1S)-1-(Biphenyl-2-yloxy)ethyl]-1,3-thiazol-4-yl}methyl)-3-(pyridin-3-ylmethyl)urea]",~290,
~0.8,"N#Cc1ccc(S(=O)(=O)Nc2ccc(NC(=O)NCc3cccnc3)cc2)c(Cl)c1 [Example 580, 2-Chloro-4-cyano-N-(4-{[(pyridin-3-ylmethyl)carbamoyl]amino}phenyl) benzenesulfonamide]",~100,
~2.4,"N#C/N=C(/NCc1ccc(COc2ccccc2-c2ccccc2)cc1)Nc1ccncc1 [Example 605, 1-{4-[(Biphenyl-2-yloxy)methyl]benzyl}-2-cyano-3-pyridin-4-ylguanidine]",~1.1,
~11,"COc1cc(N/C(=N/C#N)NCc2ccc(NS(=O)(=O)c3ccccc3-c3ccccc3)cc2)ccn1 [Example 613, N-{4-[({(Z)-(Cyanoamino)[(2-methoxypyridin-4-yl)amino]methylidene}amino)methyl]phenyl} biphenyl-2-sulfonamide]",~2600,
~520,"N#C/N=C(/NCC(=O)NCCOc1ccccc1-c1ccccc1)Nc1ccncc1 [Example 634, (Z)-N-[2-(Biphenyl-2-yloxy)ethyl]-N~2~- [(cyanoamino)(pyridin-4-ylamino)methylidene] glycinamide]",~5000,
~1300,"N#C/N=C(\NCCOc1ccccc1-c1ccccc1)Nc1cccnc1 [Example 641, 1-[2-(Biphenyl-2-yloxy)ethyl]-2-cyano-3-pyridin-3-ylguanidine]",~3200,
,"O=C(NCc1cccnc1)Nc1ccc(OCCc2ccc(F)cc2-c2ccnc(N3CCNCC3)c2)cc1 [Example 759, 1-[4-(2-{4-Fluoro-2-[2-(piperazin-1-yl)pyridin-4-yl]phenyl}ethoxy)phenyl]-3-(pyridin-3-ylmethyl)urea]",~1.9,
~10,"CN(C)CCOc1cccc(-c2ccccc2CCOc2ccc(NC(=O)NCc3cccnc3)cc2)c1 [Example 797, 1-[4-(2-{3′-[2-(Dimethylamino)ethoxy]biphenyl-2-yl}ethoxy)phenyl]-3-(pyridin-3-ylmethyl)urea]",,
~10,"O=C(NCc1cccnc1)Nc1ccc(NS(=O)(=O)c2cc(C(=O)NCC3CCCN3)c(Cl)cc2F)cc1 (centres unmarked) [Example 831, 2-Chloro-4-fluoro-5-[(4-{[(pyridin-3-ylmethyl)carbamoyl]amino}phenyl)sulfamoyl]-N-(pyrrolidin-2-ylmethyl)benzamide]",,
,O=c1[nH]c(CCCN2CC=C(c3ccccc3)CC2)nc2cccc(Cl)c12 [FR247304],,neuronal damage (PARP): attenuate neuronal damage
,Oc1cccc(-c2nc(N3CCOCC3)c3oc4ncccc4c3n2)c1 [PI-103],,"drug interaction (synergy, additivity, or antagonism) with Nampt inhibitor (HCT116 cells [4]): synergized"
,"COS(C)(=O)=O [methyl methanesulfonate (MMS), methyl methanesulfonate]",,"drug interaction (synergy, additivity, or antagonism) with Nampt inhibitor (HCT116 cells [4]): synergy"
,O=C(c1cc(Cc2n[nH]c(=O)c3ccccc23)ccc1F)N1CCN(C(=O)C2CC2)CC1 [olaparib],,"drug interaction (synergy, additivity, or antagonism) with Nampt inhibitor (HCT116 cells [4]): antagonism"
,Cc1nc2ccc(CN(C)c3ccc(C(=O)N[C@@H](CCC(=O)O)C(=O)O)s3)cc2c(=O)[nH]1 [raltitrexed],,"drug interaction (synergy, additivity, or antagonism) with Nampt inhibitor (HCT116 cells [4]): synergized"

# From patent US20130317027A1, “COMPOUNDS AND THERAPEUTIC USES THEREOF” (Myrexis, Inc, priority 2010, published 2013)
